pEC50: −log10 of the molar value. Values belong to the molecule of their own block, whether it stands above or below them. The source made the active and inactive calls. No cut-off for these calls is given here.
Tests used:
[1] = tested on: Hepatitis B virus; test: Antiviral activity against HBV infected in human primary hepatocytes assessed as HBV DNA reduction by qPCR method; assay type: functional, organism-based; settings: Hepatocyte
[2] = tested on: Hepatitis B virus; test: Antiviral activity against HBV infected in human primary hepatocytes assessed as reduction on HBsAg level by ELISA; assay type: functional, organism-based; settings: Hepatocyte
[3] = tested on: Hepatitis B virus; test: Antiviral activity against HBV infected in human primary hepatocytes assessed as reduction on HBeAg level by ELISA; assay type: functional, organism-based; settings: Hepatocyte
[4] = tested on: Hepatitis B virus; test: Antiviral activity against HBV infected in human HepG2.2.15 cells assessed as reduction of 3.5 Kb HBV RNA level at 50 nM and incubated for 4 to 48 hrs by Northern blot anlaysis; assay type: functional, organism-based; settings: time 4-48 hrs
[5] = Toxicity in mouse infected with AAV encapsidated HBV assessed as change in body weight at 1 mg/kg, po QD for 4 weeks; assay type: organism-based; settings: in vivo, 672 h
[6] = tested on: Hepatitis B virus; test: Antiviral activity against HBV infected in human HepG2.2.15 assessed as HBV DNA reduction by qPCR method; assay type: functional, organism-based
[7] = tested on: Hepatitis B virus; test: Antiviral activity against HBV infected in human HepG2.2.15 assessed as reduction on HBsAg level by ELISA; assay type: functional, organism-based
[8] = Clearance in C57BL/6 mouse at 1 mg/kg, iv; assay type: ADME, organism-based; settings: in vivo
[9] = Volume of distribution in steady state in C57BL/6 mouse at 1 mg/kg, iv; assay type: ADME, organism-based; settings: in vivo, read-out: Vdss
[10] = Half life in C57BL/6 mouse at 1 mg/kg, iv; assay type: ADME, organism-based; settings: in vivo
[11] = Cmax in C57BL/6 mouse at 2 mg/kg, po; assay type: ADME, organism-based; set-up: dose 2 mg/kg, route po; settings: in vivo
[12] = AUC (0-last) in C57BL/6 mouse at 2 mg/kg, po; assay type: ADME, organism-based; set-up: dose 2 mg/kg, route po; settings: in vivo
[13] = Oral bioavailability in C57BL/6 mouse at 2 mg/kg; assay type: ADME, organism-based; settings: in vivo
[14] = Clearance in Sprague-Dawley rat at 1 mg/kg, iv; assay type: ADME, organism-based; settings: in vivo
[15] = Volume of distribution in steady state in Sprague-Dawley rat at 1 mg/kg, iv; assay type: ADME, organism-based; settings: in vivo, read-out: Vdss
[16] = Half life in Sprague-Dawley rat at 1 mg/kg, iv; assay type: ADME, organism-based; settings: in vivo
[17] = Cmax in Sprague-Dawley rat at 2 mg/kg, po; assay type: ADME, organism-based; set-up: dose 2 mg/kg, route po; settings: in vivo
[18] = AUC (0-last) in Sprague-Dawley rat at 2 mg/kg, po; assay type: ADME, organism-based; set-up: dose 2 mg/kg, route po; settings: in vivo
[19] = Oral bioavailability in Sprague-Dawley rat at 2 mg/kg; assay type: ADME, organism-based; settings: in vivo
[20] = tested on: Hepatitis B virus; test: In vivo antiviral activity against AAV encapsidated HBV infected in mouse assessed as reduction in HBsAg level at 1 mg/kg, po QD for 4 weeks in presence of (R)-7-(tert-butyl)-2-methoxy-3-(3-methoxypropoxy)-11-oxo-6,7-dihydro-11H-benzo[f]pyrido[1,2-d][1,4]oxazepine-10-carboxylic acid by ELISA; assay type: functional, organism-based
[21] = tested on: Hepatitis B virus; test: In vivo antiviral activity against AAV encapsidated HBV infected in mouse assessed as reduction in HBeAg level at 1 mg/kg, po QD for 4 weeks in presence of (R)-7-(tert-butyl)-2-methoxy-3-(3-methoxypropoxy)-11-oxo-6,7-dihydro-11H-benzo[f]pyrido[1,2-d][1,4]oxazepine-10-carboxylic acid by ELISA; assay type: functional, organism-based
[22] = tested on: Hepatitis B virus; test: In vivo antiviral activity against AAV encapsidated HBV infected in mouse assessed as reduction in HBV DNA at 1 mg/kg, po QD for 4 weeks in presence of (R)-7-(tert-butyl)-2-methoxy-3-(3-methoxypropoxy)-11-oxo-6,7-dihydro-11H-benzo[f]pyrido[1,2-d][1,4]oxazepine-10-carboxylic acid by qPCR method; assay type: functional, organism-based
[23] = Toxicity in mouse infected with AAV encapsidated HBV assessed as change in body weight at 10 mg/kg, po QD for 4 weeks; assay type: organism-based; settings: in vivo, 672 h
[24] = tested on: Hepatitis B virus; test: In vivo antiviral activity against AAV encapsidated HBV infected in mouse assessed as reduction in HBsAg level at 10 mg/kg, po QD for 4 weeks by ELISA; assay type: functional, organism-based
[25] = tested on: Hepatitis B virus; test: In vivo antiviral activity against AAV encapsidated HBV infected in mouse assessed as reduction in HBeAg level at 10 mg/kg, po QD for 4 weeks by ELISA; assay type: functional, organism-based
[26] = Toxicity in rat assessed as organ abnormality at 100 to 300 mg/kg, po QD for 14 days; assay type: organism-based; settings: in vivo, 336 h, dose 100-300 mg/kg, time 14 day
[27] = Toxicity in rat assessed as mild myocardial degeneration of heart at 1000 mg/kg, po QD for 14 days; assay type: organism-based; settings: in vivo, 336 h, time 14 day
[28] = Toxicity in rat assessed as mild central lobular hepatocyte degeneration of liver at 1000 mg/kg, po QD for 14 days; assay type: organism-based; settings: hepatocytes, 336 h, time 14 day
[29] = Toxicity in rat assessed as mild white myeloid lymphocytopenia of spleen at 1000 mg/kg, po QD for 14 days; assay type: organism-based; settings: in vivo, 336 h, time 14 day
[30] = Toxicity in rat assessed as moderate acute mucosal inflammation of duodenum at 1000 mg/kg, po QD for 14 days; assay type: organism-based; settings: in vivo, 336 h, time 14 day
[31] = Toxicity in rat assessed as mydriasis at 300 to 1000 mg/kg, po; assay type: organism-based; settings: in vivo, dose 300-1000 mg/kg
[32] = Toxicity in rat assessed as decrease in normal rectal temperature at 300 mg/kg, po; assay type: organism-based; settings: in vivo
[33] = Toxicity in rat assessed as decrease in normal rectal temperature at 1000 mg/kg, po; assay type: organism-based; settings: in vivo

- pEC50 [6]: 7.35
- pEC50 [7]: 7.33
SMILES: CC[C@@H]1COc2cc(OCCCOC)c(Cl)cc2-c2cc(=O)c(C(=O)O)cn21

- pEC50 [6]: 6.85
- pEC50 [7]: 6.64
SMILES: COCCCOc1ccc(-c2cc(=O)c(C(=O)O)cn2-c2ccccc2C)cc1Cl

- pEC50 [6]: 8.06
- pEC50 [7]: 8.18
- clearance [8]: 32 mL/min/kg
- Vd [9]: 1.7 L/kg
- half-life [10]: 96 min
- Cmax [11]: 1310 nM
- AUC(0-t) [12]: 1.34 µM·h
- bioavailability [13]: 56.3%
SMILES: COCCCOc1cc2c(cc1Cl)-c1cc(=O)c(C(=O)O)cn1[C@H](C(C)C)CO2

- pEC50 [6]: 9.10
- pEC50 [7]: 9.05
SMILES: COCCCOc1cc2c(cc1Cl)-c1cc(=O)c(C(=O)O)cn1[C@H](C(C)C)C2

- pEC50 [6]: < 6.00
- pEC50 [7]: < 6.00
SMILES: COCCCOc1cc2c(cc1Cl)-c1cc(=O)c(C(=O)O)cn1[C@H](c1ccccc1)CO2

- pEC50 [6]: 6.71
- pEC50 [7]: 6.65
SMILES: COCCCOc1cc2c(cc1Cl)-c1cc(=O)c(C(=O)O)cn1[C@H](C)CO2

- pEC50 [6]: 9.30
- pEC50 [7]: 9.15
- clearance [8]: 58.5 mL/min/kg
- Vd [9]: 4.9 L/kg
- half-life [10]: 378 min
- Cmax [11]: 203 nM
- AUC(0-t) [12]: 0.193 µM·h
- bioavailability [13]: 18.3%
SMILES: COCCCOc1cc2c(cc1Cl)-c1cc(=O)c(C(=O)O)cn1[C@H](C(C)(C)C)CO2

Second part, the molecule before the results:

SMILES: C=C1[C@H](CO)[C@@H](O)C[C@@H]1n1cnc2c(=O)[nH]c(N)nc21.O [ENTECAVIR]
- pEC50 [1]: 11.11
- pEC50 [2]: < 10.30
- pEC50 [3]: < 10.30
- Activity [4]: inactive
- Activity [5]: Non-Toxic

SMILES: COCCCOc1cc2c(cc1Cl)-c1cc(=O)c(C(=O)O)cn1[C@H](C1CC1)CO2
- pEC50 [6]: 6.98
- pEC50 [7]: 7.18

SMILES: COCCCOc1cc2c(cc1Cl)-c1cc(=O)c(C(=O)O)cn1[C@H](CC(C)C)CO2
- pEC50 [6]: 6.99
- pEC50 [7]: 6.89

SMILES: COCCCOc1cc2c(cc1C(C)=O)-c1cc(=O)c(C(=O)O)cn1[C@H](C(C)(C)C)CO2
- pEC50 [6]: 9.30
- pEC50 [7]: 8.89
- clearance [8]: 81 mL/min/kg
- Vd [9]: 2.5 L/kg
- half-life [10]: 36 min
- Cmax [11]: 604 nM
- AUC(0-t) [12]: 0.478 µM·h
- bioavailability [13]: 55.3%
- clearance [14]: 33 mL/min/kg
- Vd [15]: 1 L/kg
- half-life [16]: 48 min
- Cmax [17]: 104 nM
- AUC(0-t) [18]: 0.228 µM·h
- bioavailability [19]: 10.4%

SMILES: COCCCOc1cc2c(cc1Cl)-c1cc(=O)c(C(=O)O)cn1[C@H](C1CCC1)CO2
- pEC50 [6]: 6.28
- pEC50 [7]: 6.90

SMILES: CC(C)OC(=O)OCOP(=O)(CO[C@H](C)Cn1cnc2c(N)ncnc21)OCOC(=O)OC(C)C
- Activity [20]: inactive
- Activity [21]: inactive
- Activity [22]: Active

SMILES: COCCCOc1cc2c(cc1OC)-c1cc(=O)c(C(=O)O)cn1[C@H](C(C)C)C2
- pEC50 [6]: 9.10
- pEC50 [7]: 9.10
- Activity [23]: Non-Toxic
- Activity [24]: Active
- Activity [25]: Active
- Activity [26]: Non-Toxic
- Activity [27]: Toxic
- Activity [28]: Toxic
- Activity [29]: Toxic
- Activity [30]: Toxic
- Activity [31]: Toxic
- Activity [32]: Toxic
- Activity [33]: Toxic

From ChEMBL document CHEMBL5223122, “Discovery and preclinical evaluations of GST-HG131, a novel HBV antigen inhibitor for the treatment of chronic hepatitis B infection” (Bioorg Med Chem Lett, 2022)
